Measured values: PubChem BioAssay AID1918956 (Molecular Pharmacology Branch, DTP, NCI, 2023)
pIC50: −log10 of the molar value.

Test system: OVCAR-5 complex spheroids, viability
Assay: Anticancer human tumor OVCAR-5 cell line growth inhibition;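 note: spheroids exposed to agents for seven days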;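 for viability, T/C: 100% = DMSO vehicle control wells viability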
Details: for pIC50: curve of first compound; for viability, T/C: stronger effect = lower value
Source text: Multicellular complex tumor spheroid response to LSD1 Inhibitor Iadademstat in combination with a variety of drugs and investigational agents in selected tumor cell lines
The current study was undertaken to assess response to LSD1 inhibitors in combination with standard-of-care drugs and investigational agents in solid tumor complex spheroid models as well as in the K-562 leukemia. Complex spheroids include a stromal component modeled by human endothelial cells (HUVEC) and fibroblasts modeled by human mesenchymal stem cells (MSCs). The concentration ranges selected for each drug and investigational agent were based upon clinically achievable concentrations if the clinical Cmax of the agent was known.
Compounds. The drugs and investigational agents used in this study are listed on Table 1. All of the agents used, including staurosporine (NSC755774) and gemcitabine (NSC613327), were obtained from the Developmental Therapeutics Program, NCI. FDA-approved anticancer drugs are available from the NCI at http://dtp.nci.nih.gov/branches/dscb/oncology_drugset_explanation.html. Drugs and investigational agents were >95% pure by proton nuclear magnetic resonance (NMR) and liquid chromatography/mass spectrometry (LC/MS). Stock solutions were prepared at 400x in DMSO, stored at -70 degrees C, and diluted in fresh medium prior to their use. The final concentration of DMSO in cell culture wells never exceeded 0.25% (v/v). The FDA-approved anticancer drug set is available from the Developmental Therapeutics Program at https://dtp.cancer.gov/organization/dscb/obtaining/available_plates.htm. All drugs and investigational agents were tested over a range starting from a high concentration at or near the clinical Cmax and decreasing in half-log increments. If the clinical Cmax for an agent had not been determined, the highest concentration tested was 10 microM.
Cell Lines. The patient-derived cancer cell (PDC) lines: 292921-168-R-J2-PDC, K24384-001-R-PDC, and 521955-158-R2-J5-PDC pancreatic carcinomas, 556581-035-R-J1 ovarian carcinoma, 324938-238-R-J1-PDC, 855422-203-R-J1-PDC and 883617-216-R-J1-PDC urothelial bladder carcinomas, 743489-274-T-PDC renal cell carcinoma, 138582-R-J1 Merkel cell tumor, K60290-347-R-J1 and K57222-313-R-J1-PDC glioblastomas, 653999-131-R-J2-PDC, LG0703-F948-PDC, and 349418-098-R-PDC non-small cell lung carcinomas, 885512-296-R-J2-PDC, 171881-019-R-J1-PDC breast carcinomas and 186277-243-T-J2-PDC and 233499-124-R-J2-PDC colon carcinomas were obtained from the NCI Patient-Derived Models Repository (PDMR, https://pdmr.cancer.gov). The established cell lines NCI/ADR-RES (RRID:CVCL_14520 and OVCAR-5 (RRID:CVCL_1628) ovarian carcinomas, 786-O (RRID:CVCL_1051) and A498 […] renal cell carcinoma, NCI-H211 (ATCC, cat. CRL-5824; RRID:CVCL_1529), NCI-H196 (ATCC, cat. CRL-5823, RRID:CVCL_1509), SW 1271 (ATCC, cat. CRL-2177, RRID:CVCL_1716) and NCI-H1876 (ATCC, cat. CRL-5902, RRID:CVCL_1503) small cell lung carcinomas, MDA-MB-231 (RRID:CVCL_0062) and MDA-MB-468 (RRID:CVCL_0419)breast carcinomas (10-12). Pooled donor human umbilical vein endothelial cells (HUVEC, Lonza, cat. CC-2519) and human mesenchymal stem cells (hMSC, Lonza, cat. PT-2501) were purchased from Lonza (Walkersville, MD).
Cell Culture. All cells were maintained in an incubator at 37 degrees C and 5% CO2 with 95% humidity. The PDC lines were cultured according to standard operating procedures established by the NCI PDMR (https://pdmr.cancer.gov). Briefly all PDCs were thawed and cultured in Matrigel-coated flasks prepared with a working solution of 1X Ham's F-12 nutrient mix, without supplementation (Invitrogen, Waltham, MA, cat. 11765054), 100 U/mL penicillin-streptomycin (Invitrogen, cat. 15140122), and 2.5% Matrigel (Corning Inc., Corning, NY, cat. 354248) for the first three passages. […]

Structure (SMILES): CC[C@@]1(O)C(=O)OCc2c1cc1n(c2=O)Cc2cc3c(CN(C)C)c(O)ccc3nc2-1 + NC1CC1c1ccc(-c2cccc(O)c2)cc1
- pIC50 (second compound 0.1 µM): 8.52
- pIC50 (second compound 0.316 µM): 8.47
- pIC50 (second compound 1 µM): 8.64
- pIC50 (second compound 3.16 µM): 8.64
- pIC50 (second compound 10 µM): 8.63
- viability, T/C (second compound 0.1 µM, first compound 0.000316 µM): 96.1%
- viability, T/C (second compound 0.1 µM, first compound 0.001 µM): 83.5%
- viability, T/C (second compound 0.1 µM, first compound 0.00316 µM): 47.5%
- viability, T/C (second compound 0.1 µM, first compound 0.01 µM): 32.3%
- viability, T/C (second compound 0.1 µM, first compound 0.0316 µM): 35.6%
- viability, T/C (second compound 0.1 µM, first compound 0.1 µM): 18.8%
- viability, T/C (second compound 0.316 µM, first compound 0.000316 µM): 102%
- viability, T/C (second compound 0.316 µM, first compound 0.001 µM): 87.3%
- viability, T/C (second compound 0.316 µM, first compound 0.00316 µM): 48.9%
- viability, T/C (second compound 0.316 µM, first compound 0.01 µM): 34.3%
- viability, T/C (second compound 0.316 µM, first compound 0.0316 µM): 33%
- viability, T/C (second compound 0.316 µM, first compound 0.1 µM): 19.8%
- viability, T/C (second compound 1 µM, first compound 0.000316 µM): 101%
- viability, T/C (second compound 1 µM, first compound 0.001 µM): 78.3%
- viability, T/C (second compound 1 µM, first compound 0.00316 µM): 38.6%
- viability, T/C (second compound 1 µM, first compound 0.01 µM): 30.5%
- viability, T/C (second compound 1 µM, first compound 0.0316 µM): 34.4%
- viability, T/C (second compound 1 µM, first compound 0.1 µM): 18.4%
- viability, T/C (second compound 3.16 µM, first compound 0.000316 µM): 88.1%
- viability, T/C (second compound 3.16 µM, first compound 0.001 µM): 78.8%
- viability, T/C (second compound 3.16 µM, first compound 0.00316 µM): 37.9%
- viability, T/C (second compound 3.16 µM, first compound 0.01 µM): 33.1%
- viability, T/C (second compound 3.16 µM, first compound 0.0316 µM): 33.4%
- viability, T/C (second compound 3.16 µM, first compound 0.1 µM): 18.7%
- viability, T/C (second compound 10 µM, first compound 0.000316 µM): 93.3%
- viability, T/C (second compound 10 µM, first compound 0.001 µM): 75.6%
- viability, T/C (second compound 10 µM, first compound 0.00316 µM): 40.1%
- viability, T/C (second compound 10 µM, first compound 0.01 µM): 31.8%
- viability, T/C (second compound 10 µM, first compound 0.0316 µM): 37.7%
- viability, T/C (second compound 10 µM, first compound 0.1 µM): 20.7%

Structure (SMILES): COc1cc(C2c3cc4c(cc3C(OC3OC5COC(C)OC5C(O)C3O)C3COC(=O)C23)OCO4)cc(OC)c1O (stereo not given) + NC1CC1c1ccc(-c2cccc(O)c2)cc1
- pIC50 (second compound 0.1 µM): 6.39
- pIC50 (second compound 0.316 µM): 6.30
- pIC50 (second compound 1 µM): 6.40
- pIC50 (second compound 3.16 µM): 6.37
- pIC50 (second compound 10 µM): 6.52
- viability, T/C (second compound 0.1 µM, first compound 0.00949 µM): 94.9%
- viability, T/C (second compound 0.1 µM, first compound 0.03 µM): 93.3%
- viability, T/C (second compound 0.1 µM, first compound 0.0949 µM): 80.2%
- viability, T/C (second compound 0.1 µM, first compound 0.3 µM): 55.3%
- viability, T/C (second compound 0.1 µM, first compound 0.949 µM): 36.1%
- viability, T/C (second compound 0.1 µM, first compound 3 µM): 32.5%
- viability, T/C (second compound 0.316 µM, first compound 0.00949 µM): 96.7%
- viability, T/C (second compound 0.316 µM, first compound 0.03 µM): 109%
- viability, T/C (second compound 0.316 µM, first compound 0.0949 µM): 91.8%
- viability, T/C (second compound 0.316 µM, first compound 0.3 µM): 61.7%
- viability, T/C (second compound 0.316 µM, first compound 0.949 µM): 35.8%
- viability, T/C (second compound 0.316 µM, first compound 3 µM): 32.3%
- viability, T/C (second compound 1 µM, first compound 0.00949 µM): 100%
- viability, T/C (second compound 1 µM, first compound 0.03 µM): 103%
- viability, T/C (second compound 1 µM, first compound 0.0949 µM): 85.5%
- viability, T/C (second compound 1 µM, first compound 0.3 µM): 56.8%
- viability, T/C (second compound 1 µM, first compound 0.949 µM): 31.4%
- viability, T/C (second compound 1 µM, first compound 3 µM): 32.4%
- viability, T/C (second compound 3.16 µM, first compound 0.00949 µM): 89.1%
- viability, T/C (second compound 3.16 µM, first compound 0.03 µM): 85.2%
- viability, T/C (second compound 3.16 µM, first compound 0.0949 µM): 74.9%
- viability, T/C (second compound 3.16 µM, first compound 0.3 µM): 55%
- viability, T/C (second compound 3.16 µM, first compound 0.949 µM): 38.4%
- viability, T/C (second compound 3.16 µM, first compound 3 µM): 34.6%
- viability, T/C (second compound 10 µM, first compound 0.00949 µM): 85.1%
- viability, T/C (second compound 10 µM, first compound 0.03 µM): 88.8%
- viability, T/C (second compound 10 µM, first compound 0.0949 µM): 67.5%
- viability, T/C (second compound 10 µM, first compound 0.3 µM): 53.3%
- viability, T/C (second compound 10 µM, first compound 0.949 µM): 35.2%
- viability, T/C (second compound 10 µM, first compound 3 µM): 37%
